Assays:
[1] = molecular target: mGluR2 (Homo sapiens (Human), UniProt Q14416); experiment: In vitro activity test for mGluR2 (HDB Fluo-8 calcium fluorescence, HEK/mGluR2 cell line); assay type: cell-based
Source text: Experimental materials: HEK/mGluR2 cell line (human […] transfected HEK cell line), DMEM (FBS) medium, positive control LY487379 (purchased from sigma; CAS: to 352317-17-1)
Experimental instrument: FLIPR Tetra real-time fluorescence imaging analysis system
Experimental method: HDB Fluo-8 calcium fluorescence detection method
Experimental principle: HDB Fluo-8 calcium ion fluorescence detection method is a fast, simple and reliable fluorescence detection method of intracellular calcium concentration changes. The Fluo 8-AM fluorescent dye is an acetyl methyl ester derivative of Fluo 8 which can easily penetrate into the cell membrane by culture. The fluorescent dye in the cell will be hydrolyzed by intracellular esterase, the resulting Fluo 8 as a polar molecule, cannot easily pass through the lipid bimolecular membrane, and will be retained in the cell, and combine with calcium (Ca^2+) to produce fluoresces.
Cells expressing GPCR receptor protein (mGluR2) were first calibrated with a calcium ion sensitive fluorescent probe and then stimulated with the compound. After stimulation, the receptor activates the calcium ion mobilization, and the fluorescent probe captures the calcium ion to induce the fluorescence signal. The signal can be read by a fluoroscopy plate. The fluorescent plate reader contains a sample addition for compound addition, thus enabling the change of the fluorescence value of the compound be read in real time.

[2] = test system: ICR mice; experiment: Mouse swimming depression test; assay type: in vivo; conditions: for non-movement time (%) Mean ± SEM: orally, 1 hour before test
Description: Experiment objectives: to observe the effect of the test compound on the depressive status of mice
Experimental animals: ICR mice, 20-28 g, both male and female
Experimental equipment: plexiglass tube: cylindrical, 25 cm high, 15 cm inner diameter
Sample treatment: The test compounds were ground with 1% CMC (sodium carboxymethyl cellulose) to prepare a homogeneous solution. In vivo dose was 5 mg/kg, 10 mg/kg and 20 mg/kg, the compound was orally administrated at 0.1 ml/10 g volume/body weight. Positive control drugs (amitriptyline and fluoxetine) were dissolved with 0.9% saline, in vivo dose was 10 mg/kg, intraperitoneal injected at 0.1 ml/10 g volume/body weight. (Note: mice were given the compound after fasted for 8 hours without water-fasted.)
Experimental principle: The mouse is placed in a limited space which can not escape to swim, thus inducing animals to non-movement state which reflects the animal's desperate behavior.
Experimental Methods: mice were grouped randomly, 15 minutes swimming depression was modeled at the first day, and equivalent mice were selected. The second day of the test, 1 hour after the animals were orally administered the compound (0.5 hours after intraperitoneal injection) and then the animals were put in water to record the non-movement time in the later 4 min of 6 min.

[3] = test system: C57BL/6 mice; experiment: Mouse open field experiment; assay type: in vivo; conditions: for Central area dwell time (s) Mean ± SEM / Central area traveling distance percentage (%) Mean ± SEM / Total moving distance (cm) Mean ± SEM: 30 mg/kg i.p., 1 hour before, 30-minute test
Description: Experiment objectives: to observe the anti-anxiety effect of the test compound on the mice by open field experiment.
Experimental animals: male C57BL/6 mice, 10 weeks old, purchased from Beijing Huafukang Biotechnology Co., Ltd.
Animal rearing: The temperature in the animal room was maintained at 20-25° C., the humidity was maintained at 40-70%, and the photoperiod was 12 hours light and 12 hours dark. During feeding, the mice were housed in standard mouse cages, with colored labels on each cage clearly indicating the item number, and the basic information such as the responsible person, group, animal number and animal gender. All animals were given free access to pure water and standard certified rodent feed. Before the start of the experiment, the experimental animals were adapted to the feeding environment for at least one week.
The compound to be tested, intraperitoneally administered, 30 mg/kg.
Experimental principle: Based on the instincts of rodents tending to avoid light and fear of exploring open fields. When the experimental animals were first placed in the open field, the central area was a potential threat to the animals, while the peripheral area was relatively safe, and rats and mice were more likely to move along the perimeter of the field. Therefore, if the animal is of high anxiety level, it tends to stay in the peripheral area. Conversely, the number and time of exploration in the central area will increase.
Experimental grouping and administration: Experimental animals were randomly divided into 5 groups as follows:
During the 30-minute test period, the total distance traveled by the experimental animals, the central area dwell time, and the percentage of the central area travel distance will be detected and recorded.

mGluR2, sequence (Q14416 19-872): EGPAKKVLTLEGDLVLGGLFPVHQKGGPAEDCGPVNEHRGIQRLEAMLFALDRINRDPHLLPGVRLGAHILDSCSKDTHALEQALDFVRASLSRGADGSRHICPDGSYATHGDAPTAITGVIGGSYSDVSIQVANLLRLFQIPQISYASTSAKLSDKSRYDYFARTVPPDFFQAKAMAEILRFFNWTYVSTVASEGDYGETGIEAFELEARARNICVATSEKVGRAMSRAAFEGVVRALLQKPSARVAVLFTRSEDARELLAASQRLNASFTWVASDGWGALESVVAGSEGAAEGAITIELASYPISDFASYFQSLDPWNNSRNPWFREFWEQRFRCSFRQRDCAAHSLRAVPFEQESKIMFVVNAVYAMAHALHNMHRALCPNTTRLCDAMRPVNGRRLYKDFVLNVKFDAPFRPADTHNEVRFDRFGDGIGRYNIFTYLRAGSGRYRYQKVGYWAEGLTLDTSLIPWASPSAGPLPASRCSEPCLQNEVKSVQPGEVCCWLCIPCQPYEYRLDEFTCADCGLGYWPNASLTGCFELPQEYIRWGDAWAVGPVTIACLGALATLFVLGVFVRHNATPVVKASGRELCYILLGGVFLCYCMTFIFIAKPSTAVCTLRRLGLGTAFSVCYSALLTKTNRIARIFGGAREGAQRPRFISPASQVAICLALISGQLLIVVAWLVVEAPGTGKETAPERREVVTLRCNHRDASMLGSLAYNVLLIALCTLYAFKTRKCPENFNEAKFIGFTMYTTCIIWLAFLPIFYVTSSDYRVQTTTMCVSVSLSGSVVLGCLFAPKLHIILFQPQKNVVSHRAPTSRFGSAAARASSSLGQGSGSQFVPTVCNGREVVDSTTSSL

Row | SMILES | EC50 [1] [nM] | non-movement time (%) Mean ± SEM ([2]; 5 mg/kg) [%] | non-movement time (%) Mean ± SEM ([2]; 10 mg/kg) [%] | non-movement time (%) Mean ± SEM ([2]; 20 mg/kg) [%] | "no movement time" of swimming in mice (in words) ([2]; mouse, in vivo) | antidepressant effect ([2]; mouse, in vivo) | Central area dwell time (s) Mean ± SEM [3] [s] | Central area traveling distance percentage (%) Mean ± SEM [3] [%] | Total moving distance (cm) Mean ± SEM [3] [cm] | central region's range of motion ([3]; dosage of 30 mg/kg)
1 | COC(=O)c1ccc(-c2ccn3c(CC4CC4(F)F)nnc3c2Cl)c(F)c1 (centres unmarked) [Compound 45, Methyl 4-(8-Chloro-3-((2,2-difluorocyclopropyl)methyl)-[1,2,4]triazole[4,3-a]pyridin-7-yl)-3-fluorobenzoate] | 87.9 | 63.99 ± 11.00 | 34.88 ± 6.57 | 56.29 ± 17.56 | effectively shorten | significant antidepressant effect | 110 ± 13.0 | 19.39 ± 1.63 | 5043.2 ± 457.5 | significantly increase
2 | FC1(F)CC1Cc1nnc2c(Cl)c(-c3ccc4c(c3)OCO4)ccn12 (centres unmarked) [Compound 50, 7-(Benzo[d][1,3]dioxol-5-yl)-8-chloro-3-((2,2-difluorocyclopropyl)methyl)-[1,2,4]triazole [4,3-a]pyridine] | 62.3 | 84.06 ± 10.65 | 52.10 ± 15.86 | 57.08 ± 17.80 |  |  | 81.1 ± 10.2 | 13.91 ± 0.96 | 4407.2 ± 390.5 | 

Source: US10800776B2, “Fluorine-containing triazolopyridine, and manufacturing method, pharmaceutical composition, and application thereof” (SHANGHAI INSTITUTE OF MATERIA MEDICA, CHINESE ACADEMY OF …, priority 2016, dated 2020)
